Experimental data as given in US20250320523A1, “PHAGOCYTOSIS ASSAY COMBINING A SYNTHETIC CELL DEATH SWITCH AND A PHAGOCYTOSIS REPORTER SYSTEM” (Hoffmann-La Roche Inc., priority 2022, published 2025).

Assays:
[1] = system: phagocytosis by iPSC-derived microglia; experiment: 2D phagocytosis of apoptotic H4-iCaspase-SEP-mCherry cells by iPSC-derived microglia (Incucyte imaging); assay type: cell-based, human; conditions: 1 uM Cytochalasin D added 30 min before imaging; apoptosis induced with 10 nM AP20187
Method: H4 cells were transduced with a lentiviral vector containing iCaspase-SEP-mCherry, single-cell sorted for SEP and mCherry double-positive cells and expanded in 1 μg/ml Puromycin-containing media to select for stably transduced cells. HMC3 or iPSC-derived microglia (Reich, M et al. Alzheimer's Risk Gene TREM2 Determines Functional Properties of New Type of Human iPSC-Derived Microglia. 2021; 11:617860) were seeded in a 96-well imaging plate […]. To visualize microglial morphology during the phagocytosis assay, cells were stained with a far-red viability dye (eBioscience). H4-iCaspase-SEP-mCherry cells were added the next day and left to attach for 3 h. […] Apoptosis was induced at to by adding 10 nM AP20187 to the media, and time-lapse imaging was immediately started on an inverted fluorescence microscope (Leica) or incucyte (Sartorius), 10× objective, 1 image every 10 minutes for 8 hours or more.
The number of phagocytosed cells per area was determined using the incucyte software for automated image quantification, by 1) segmenting individual cells, 2) identifying all H4-iCaspase-SEP-mCherry cells positive for mCherry (red fluorescence) and 3) from those cells, identifying the SEP (green fluorescence) negative cells as phagocytosed cells. […]

[2] = system: efferocytosis by THP-1 macrophages; experiment: Efferocytosis of Jurkat-iCaspase-SEP-mCherry cells by THP-1 macrophages, flow cytometry; assay type: cell-based; conditions: Jurkat cells pre-treated, then 10 nM AP20187, incubated with THP-1 macrophages
Method: Jurkat cells were transduced with a lentiviral vector containing iCaspase-SEP-mCherry, FACS sorted for SEP- and mCherry-expression and expanded in 1 ug/ml Puromycin-containing media to select for stably transduced cells. For pre-treatments, the Jurkat cells were incubated with GAS6, an efferocytosis enhancer, or Cytochalasin D, an efferocytosis inhibitor, then exposed to 10 nM AP20187 and incubated with THP-1 macrophages. As a control, Jurkat cells were treated with Staurosporin and labeled with pHrodo (red pH-sensitive fluorophore). Efferocytosis was quantified using flow cytometry, by gating for mCherry-positive and SEP-negative cells (apoptotic cells taken up by THP1), and for pHrodo-high cells in the control samples.

[3] = system: HEK293 cells transfected with iCaspase9; experiment: Apoptosis induction in iCaspase9-transfected HEK293 cells, AnnexinV/viability dye flow cytometry; assay type: cell-based
Method: HEK293 cells were transfected with 2 μg of iCaspase9 construct by nucleofection (Amaxa 4D nucleofector by Lonza, program CM-130) and plated in a 24-well plate. The following day, 100 nM AP20187 was added to the cells, and analyzed 1 h, 2 h or 3 h later. For the control, the cells were incubated with […] Staurosporine for 3 h. For the analysis, the cells were harvested and labeled with AnnexinV-BV421 and viability dye APCeF780 and analyzed by flow cytometry. Apoptotic cells were qualified as AnnexinV-positive and viability dye-negative.

[4] = system: H4-iCaspase-SEP-mCherry cells in blood-brain barrier spheroids; experiment: Phagocytosis assay in 3D BBB spheroids (H4-iCaspase-SEP-mCherry and HMC3 microglia); assay type: cell-based, human; conditions: 100 nM AP20187, day 2, imaged 8 hours
Method: H4 cells were transduced with a lentiviral vector containing iCaspase-SEP-mCherry, single-cell sorted for SEP- and mCherry double-positive cells and expanded in 1 μg/ml Puromycin-containing media to select for stably transduced cells. H4-iCaspase-SEP-mCherry and HMC3 microglia were co-seeded with primary human brain endothelial cells, pericytes and astrocytes (Sciencell) to form blood-brain barrier (BBB) spheroids as described by Simonneau, C et al. Investigating receptor-mediated antibody transcytosis using blood-brain barrier organoid arrays. Fluids Barriers CNS. 2021; 18 (1): 43. Briefly, the cells were combined at a 1:1:1:1:1 ratio and seeded into a glass-bottom GRI3D microwell plate (SUN Biosciences). After 2 days of culture in EGM2 medium (Lonza) with astrocyte growth supplement (Sciencell), a timelapse experiment was performed as described above (for FIG. 4): Apoptosis was induced at t0 by adding 100 nM AP20187 to the media, and time-lapse imaging was immediately started on an inverted fluorescence microscope (Leica) using autofocus, 10× objective, 1 image every 10 minutes for 8 hours or more.

[5] = system: H4-iCaspase-SEP-mCherry cells in neurovascular unit model; experiment: Phagocytosis assay in 3D neurovascular unit model in microfluidic chip; assay type: cell-based, human; conditions: 10 nM AP20187, 3D matrix of microfluidic chip, after 7 days culture
Method: H4 cells were transduced with a lentiviral vector containing iCaspase-SEP-mCherry, single-cell sorted for SEP- and mCherry double positive cells and expanded in 1 μg/ml Puromycin-containing media to select for stably transduced cells. H4-iCaspase-SEP-mCherry and HMC3 microglia were co-seeded with primary human brain endothelial cells, pericytes and astrocytes (Sciencell) at the ratio 1:1:4:0.5:1 and left to self-assemble to neurovascular units inside a fibrin gel matrix in a microfluidic chip (AIM Biotech). The cells were seeded into the microfluidic chips as described in Campisi, M et al.3D Self-Organized Human Blood-Brain Barrier in a Microfluidic Chip. Methods Mol Biol. 2021; 2258:205-219, and the vascular networks were grown over 7 days in EGM2 medium (Lonza) with astrocyte growth supplement (Sciencell). Apoptosis was induced at t0 by adding 10 nM AP20187 to the media, the chips were then fixed in 4% PFA after 30 minutes or 2 h, counterstained with DAPI and imaged on an inverted fluorescence microscope.

C=C1[C@@H](C)[C@H]2[C@H](Cc3ccccc3)NC(=O)[C@]23[C@H](OC(C)=O)/C=C/[C@@](C)(O)C(=O)[C@@H](C)C/C=C/[C@H]3[C@@H]1O [Cytochalasin D]
onset and total amount of phagocytosed apoptotic cells [1]: reduces both the onset and total amount | uptake of apoptotic cells by macrophages [2]: lowest uptake

CN[C@@H]1C[C@H]2O[C@@](C)([C@@H]1OC)n1c3ccccc3c3c4c(c5c6ccccc6n2c5c31)C(=O)NC4 [Staurosporine]
apoptotic cells (AnnexinV-positive and viability dye-negative) ([3]; Staurosporine, after 3 h): 36%

CC[C@H](C(=O)N1CCCC[C@H]1C(=O)O[C@H](CCc1ccc(OC)c(OC)c1)c1cccc(OCC(=O)NCC(CNC(=O)COc2cccc([C@@H](CCc3ccc(OC)c(OC)c3)OC(=O)[C@@H]3CCCCN3C(=O)[C@@H](CC)c3cc(OC)c(OC)c(OC)c3)c2)CN(C)C)c1)c1cc(OC)c(OC)c(OC)c1 [AP20187]
apoptotic cells (AnnexinV-positive and viability dye-negative) ([3]; 100 nM AP20187, after 1 h, iCaspase9 HEK293 cells): 88% | SEP signal of spheroids (loss indicates phagocytosis) [4]: gradually lost SEP signal | time to efficient induction of apoptosis in transduced cells [5]: ≤ 30 min

B1: GAS6: an efferocytosis enhancer (protein, UniProt Q14393 31-678, looked up)
Growth arrest-specific …: ALLPAREATQFLRPRQRRAFQVFEEAKQGHLERECVEELCSREEAREVFENDPETDYFYPRYLDCINKYGSPYTKNSGFATCVQNLPDQCTPNPCDRKGTQACQDLMGNFFCLCKAGWGGRLCDKDVNECSQENGGCLQICHNKPGSFHCSCHSGFELSSDGRTCQDIDECADSEACGEARCKNLPGSYSCLCDEGFAYSSQEKACRDVDECLQGRCEQVCVNSPGSYTCHCDGRGGLKLSQDMDTCEDILPCVPFSVAKSVKSLYLGRMFSGTPVIRLRFKRLQPTRLVAEFDFRTFDPEGILLFAGGHQDSTWIVLALRAGRLELQLRYNGVGRVTSSGPVINHGMWQTISVEELARNLVIKVNRDAVMKIAVAGDLFQPERGLYHLNLTVGGIPFHEKDLVQPINPRLDGCMRSWNWLNGEDTTIQETVKVNTRMQCFSVTERGSFYPGSGFAFYSLDYMRTPLDVGTESTWEVEVVAHIRPAADTGVLFALWAPDLRAVPLSVALVDYHSTKKLKKQLVVLAVEHTALALMEIKVCDGQEHVVTVSLRDGEATLEVDGTRGQSEVSAAQLQERLAVLERHLRSPVLTFAGGLPDVPVTSAPVTAFYRGCMTLEVNRRLLDLDEAAYKHSDITAHSCPPVEPAAA
uptake of apoptotic cells by macrophages [2]: highest uptake
